The source made the active and inactive calls. The rule behind the calls is not given here.
What was measured:
Mus musculus [1] = assay: Antiobesity activity in Sabra mouse assessed as change in body weight at 1 mg/kg, ip administered on day 8, 9, 10, 11, 14, 18, 24 and 32 measured on day 4 relative to control; assay type: functional; conditions: route intraperitoneal
Mus musculus [2] = assay: Antiobesity activity in Sabra mouse assessed as reduction in body weight at 1 mg/kg, ip administered on day 0, 10, 11, 12, 24, 29 measured on day 33 relative to control; assay type: functional; set-up: scale not given: the % may be the effect or the level left; conditions: route intraperitoneal
Mus musculus [3] = assay: Antiobesity activity in Sabra mouse assessed as reduction in body weight at 1 mg/kg, ip administered on day 0, 10, 11, 12, 24, 29 measured on day 24 relative to control; assay type: functional; set-up: scale not given: the % may be the effect or the level left; conditions: route intraperitoneal
Mus musculus [4] = assay: Antiobesity activity in Sabra mouse assessed as reduction in body weight at 1 mg/kg, ip administered on day 0, 10, 11, 12, 24, 29 measured on day 22 relative to control; assay type: functional; set-up: scale not given: the % may be the effect or the level left; conditions: route intraperitoneal
Mus musculus [5] = assay: Antiobesity activity in C57BL/6 mouse assessed as change in AST level at 5 mg/kg, ip measured on day 36 (reference value: 146.7 IU/L); assay type: functional; conditions: route intraperitoneal
Mus musculus [6] = assay: Antiobesity activity in C57BL/6 mouse assessed as change in triglyceride level at 5 mg/kg, ip measured on day 36 (reference value: 0.92 mg/dL); assay type: functional; conditions: route intraperitoneal
Mus musculus [7] = assay: Antiobesity activity in C57BL/6 mouse assessed as change in glucose level in blood at 5 mg/kg, ip administered on day 1, 4, 5, 7, 17, 15, 19 measured on day 19 relative to control; assay type: functional; conditions: route intraperitoneal
Mus musculus [8] = assay: Antiobesity activity in C57BL/6 mouse assessed as change in glucose level in blood at 5 mg/kg, ip administered on day 1, 4, 5, 7, 17, 15, 19 measured on day 5 relative to control; assay type: functional; conditions: route intraperitoneal
Mus musculus [9] = assay: Antiobesity activity in C57BL/6 mouse assessed as change in glucose level in blood at 5 mg/kg, ip administered on day 1, 4, 5, 7, 17, 15, 19 measured on day 3 relative to control; assay type: functional; conditions: route intraperitoneal
Mus musculus [10] = assay: Antiobesity activity in C57BL/6 mouse assessed as weight loss at 5 mg/kg, ip administered on day 1, 4, 5, 7, 17, 15, 19 measured on day 19 relative to control; assay type: functional; conditions: route intraperitoneal
Mus musculus [11] = assay: Antiobesity activity in C57BL/6 mouse assessed as weight loss at 5 mg/kg, ip administered on day 1, 4, 5, 7, 17, 15, 19 measured on day 15 relative to control; assay type: functional; conditions: route intraperitoneal
Mus musculus [12] = assay: Antiobesity activity in C57BL/6 mouse assessed as weight loss at 5 mg/kg, ip administered on day 1, 4, 5, 7, 17, 15, 19 measured on day 11 relative to control; assay type: functional; conditions: route intraperitoneal
Mus musculus [13] = assay: Enhancement of cognitive function in Sabra mouse at 1 mg/kg, ip administered on day 8, 12 and 43 by eight-arm maze test; assay type: functional, organism-based; set-up: dose 1 mg/kg
Mus musculus [14] = assay: Antiobesity activity in Sabra mouse assessed as change in body weight at 1 mg/kg, ip administered on day 8, 12 and 43 measured on day 54 relative to control; assay type: functional; conditions: route intraperitoneal
Mus musculus [15] = assay: Antiobesity activity in Sabra mouse assessed as change in body weight at 1 mg/kg, ip administered on day 8, 12 and 43 measured on day 36 relative to control; assay type: functional; conditions: route intraperitoneal
Mus musculus [16] = assay: Antiobesity activity in Sabra mouse assessed as change in body weight at 1 mg/kg, ip administered on day 8, 12 and 43 measured on day 33 relative to control; assay type: functional; conditions: route intraperitoneal
Mus musculus [17] = assay: Antiobesity activity in Sabra mouse assessed as change in body weight at 1 mg/kg, ip administered on day 8, 12 and 43 measured on day 29 relative to control; assay type: functional; conditions: route intraperitoneal
Mus musculus [18] = assay: Antiobesity activity in Sabra mouse assessed as change in body weight at 1 mg/kg, ip administered on day 8, 12 and 43 measured on day 12 relative to control; assay type: functional; conditions: route intraperitoneal
Mus musculus [19] = assay: Antiobesity activity in Sabra mouse assessed as change in body weight at 1 mg/kg, ip administered on day 8, 12 and 43 measured on day 5 relative to control; assay type: functional; conditions: route intraperitoneal
Mus musculus [20] = assay: Toxicity in Sabra mouse assessed as morphological changes in neuronal cells at 1 mg/kg, ip administered on day 8, 9, 10, 11, 14, 18, 24 and 32 by hematoxylin and eosin staining-based histopathological analysis; assay type: organism-based; set-up: dose 1 mg/kg, route intraperitoneal; conditions: in vivo
Mus musculus [21] = assay: Enhancement of cognitive function in Sabra mouse at 10 mg/kg, ip administered on day 6 to 10 by eight-arm maze test relative to control; assay type: functional, organism-based; set-up: dose 10 mg/kg
Mus musculus [22] = assay: Enhancement of motor activity in Sabra mouse at 10 mg/kg, ip administered on day 6 to 10 by open field test relative to control; assay type: functional; conditions: route intraperitoneal
Hypothalamus [23] = assay: Effect on POMC gene expression in ip dosed Sabra mouse hypothalamus assessed as increase in mRNA level administered on day 6 to 10 measured on day 16 by RT-PCR analysis relative to control; assay type: functional, organism-based
Mus musculus [24] = assay: Enhancement of cognitive function in Sabra mouse at 1 mg/kg, ip measured on day 8 to 12 by eight-arm maze test; assay type: functional, organism-based; set-up: dose 1 mg/kg
Mus musculus [25] = assay: Increase in motor activity Sabra mouse at 1 mg/kg, ip administered on day 8, 9, 10, 11, 14, 18, 24 and 32 measured on day 14 by open field test; assay type: functional, organism-based; set-up: dose 1 mg/kg
Hypothalamus [26] = assay: Effect on FAAH gene expression in Sabra mouse hypothalamus assessed as change in mRNA level at 1 mg/kg, ip administered on day 8, 9, 10, 11, 14, 18, 24 and 32 by RT-PCR analysis relative to GAPDH; assay type: functional; conditions: route intraperitoneal
Mus musculus [27] = assay: Antiobesity activity in high fat diet fed C57BL/6 mouse assessed as reduction in body weight at 1 mg/kg, ip administered on day 3, 6, 8, 9, 10 measured on day 10 relative to control; assay type: functional; set-up: scale not given: the % may be the effect or the level left; conditions: route intraperitoneal
Mus musculus [28] = assay: Antiobesity activity in high fat diet fed C57BL/6 mouse assessed as reduction in body weight at 1 mg/kg, ip administered on day 3, 6, 8, 9, 10 measured on day 8 relative to control; assay type: functional; set-up: scale not given: the % may be the effect or the level left; conditions: route intraperitoneal
Mus musculus [29] = assay: Antiobesity activity in high fat diet fed C57BL/6 mouse assessed as reduction in body weight at 1 mg/kg, ip administered on day 3, 6, 8, 9, 10 measured on day 9 relative to control; assay type: functional; set-up: scale not given: the % may be the effect or the level left; conditions: route intraperitoneal
Hypothalamus [30] = assay: Effect on POMC gene expression in Sabra mouse hypothalamus assessed as increase in mRNA level at 10 mg/kg, ip administered on day 6 to 10 measured on day 16 by RT-PCR analysis relative to control; assay type: functional; conditions: route intraperitoneal
Mus musculus [31] = assay: Antiobesity activity in Sabra mouse assessed as change in food consumption at 1 mg/kg, ip administered on day 8, 9, 10, 11, 14, 18, 24 and 32 measured after 3 weeks relative to control; assay type: functional; conditions: route intraperitoneal
Mus musculus [32] = assay: Antiobesity activity in Sabra mouse assessed as change in body weight at 1 mg/kg, ip administered on day 8, 9, 10, 11, 14, 18, 24 and 32 measured on day 39 relative to control; assay type: functional; conditions: route intraperitoneal
Mus musculus [33] = assay: Antiobesity activity in Sabra mouse assessed as change in body weight at 1 mg/kg, ip administered on day 8, 9, 10, 11, 14, 18, 24 and 32 measured on day 25 relative to control; assay type: functional; conditions: route intraperitoneal

## CCCCCCCC/C=C\CCCCCCCC(=O)N[C@H](CO)C(C)C
Mus musculus [1]
  Activity: 0.5%
Mus musculus [2]
  Activity: -4%
Mus musculus [3]
  Activity: -4.24%
Mus musculus [4]
  Activity: -3.06%
Mus musculus [5]
  Activity: 126 IU/L
Mus musculus [6]
  Activity: 1.017 mg/dL
Mus musculus [7]
  Activity: -21.6%
Mus musculus [8]
  Activity: -5.7%
Mus musculus [9]
  Activity: -2.7%
Mus musculus [10]
  Activity: 2.1%
Mus musculus [11]
  Activity: -4.7%
Mus musculus [12]
  Activity: -3.2%
Mus musculus [13]
  Activity: Active
Mus musculus [14]
  Activity: -8.2%
Mus musculus [15]
  Activity: -6.9%
Mus musculus [16]
  Activity: -5.2%
Mus musculus [17]
  Activity: -4.9%
Mus musculus [18]
  Activity: -2.2%
Mus musculus [19]
  Activity: 1.8%
Mus musculus [20]
  Activity: Non-toxic
Mus musculus [21]
  Activity: inactive
Mus musculus [22]
  Activity: 30%
Hypothalamus [23]
  Activity: Dose-dependent effect
Mus musculus [24]
  Activity: Active
Mus musculus [25]
  Activity: Active
Hypothalamus [26]
  Activity: -33%
Mus musculus [27]
  Activity: -6.3%
Mus musculus [28]
  Activity: -3.2%
Mus musculus [29]
  Activity: -3.1%
Hypothalamus [30]
  Activity: 90%
Mus musculus [31]
  Activity: 91.2%
Mus musculus [32]
  Activity: -6.4%
Mus musculus [33]
  Activity: -5%
